Data from patent publication US7534871B2, “Preparation and use of carbohydrate-based bicyclic ring structures with antimicrobial and cytostatic activity” (Kemin Pharma B.V.B.A., priority 2004, dated 2009).
Values after ≈ are worked out from the molar mass of the structure shown. Read-outs that look alike come from different tables or passages of the source.

What was measured:
[1] = Cytotoxicity: inhibition of HEL cell growth (CC50); format: cell-based; settings: human; concentration required to reduce cell growth by 50%; HEL cells, three days
Experimental: The medium was then replaced by MEM containing various concentrations of the test compound. After three days incubation at 37° C., when the cell monolayer was 70% confluent, the cell number was determined with the Coulter counter. The minimum cytotoxic concentration was defined as the concentration required to reduce cell growth by 50%.

[2] = system: VV; assay: microbe, parasite or virus in culture; format: cell-based; settings: Orthopoxvirus vaccinia, E6SM, read-out: EC50 VV (E6SM)
[3] = system: VZV YS; assay: Anti-viral activity: VZV-induced plaque formation in HEL cell cultures, YS strain; format: cell-based, varicella zoster virus (VZV); settings: Human alphaherpesvirus 3, VZV-induced plaque formation in human embryonic lung HEL cell cultures, 50%
[4] = system: human T-lymphocyte cells (CEM/0); assay: Cytostatic activity: inhibition of proliferation of CEM/0 cells; format: cell-based; settings: CCRF-CEM, 50% inhibitory concentration, cell proliferation, read-out: IC50 CEM/0
Experimental: (§1) The compounds were tested for anti-tumor activity via the inhibitory effects on the proliferation of murine leukemia cells (L1210/0), murine mammary carcinoma cells (FM3A), human T-lymphocyte cells (Molt4/C8, CEM/0) and human cervix carcinoma cells (HeLa).

[5] = system: human T-lymphocyte cells (Molt4/C8); assay: Cytostatic activity: inhibition of proliferation of Molt4/C8 cells; format: cell-based; settings: Molt4/C8, 50% inhibitory concentration, cell proliferation, read-out: IC50 Molt4/C8
Experimental: as §1

[6] = system: murine leukemia cells (L1210/0); assay: Cytostatic activity: inhibition of proliferation of L1210/0 cells; format: cell-based; settings: Mus musculus, L1210/0; 50% inhibitory concentration, cell proliferation; read-out: IC50 L1210/0
Experimental: as §1

[7] = system: HSV-2 (G); assay: Anti-viral activity: HSV-2-induced cytopathicity in human embryo fibroblast E6SM cell cultures; format: cell-based, herpes simplex virus (HSV); settings: Human alphaherpesvirus 2, 50%
[8] = system: CMV Davis strain; assay: Anti-CMV activity: plaque reduction in HEL cells, Davis strain; format: cell-based, human cytomegalovirus (CMV); settings: Human betaherpesvirus 5, HEL; Table 6; reduce virus plaque formation by 50%; virus input 100 PFU; read-out: Anti-CMV activity IC50 Davis strain
[9] = system: HSV-1 (KOS); assay: Anti-viral activity: HSV-1-induced cytopathicity in human embryo fibroblast E6SM cell cultures; format: cell-based, herpes simplex virus (HSV); settings: Human alphaherpesvirus 1, 50%
[10] = system: murine mammary carcinoma cells (FM3A); assay: Cytostatic activity: inhibition of proliferation of FM3A cells; format: cell-based; settings: Mus musculus, 50% inhibitory concentration, cell proliferation, read-out: IC50 FM3A/0
Experimental: as §1

[11] = system: CMV AD-169 strain; assay: Anti-CMV activity: plaque reduction in HEL cells, AD-169 strain; format: cell-based, human cytomegalovirus (CMV); settings: Human betaherpesvirus 5, AD169, HEL, reduce virus plaque formation by 50%, virus input 100 PFU
[12] = system: HEL cells; assay: Cytotoxicity: alteration of cell morphology (MCC); format: cell-based, human; settings: minimum cytotoxic concentration that causes a microscopically detectable alteration of cell morphology
[13] = system: VZV OKA; assay: microbe, parasite or virus in culture; format: cell-based, varicella zoster virus (VZV); settings: Human alphaherpesvirus 3, HEL, read-out: EC50 VZV (HEL) OKA
[14] = system: S. aureus ATTC29213 LMG10147; assay: Anti-bacterial activity, Bioscreen C growth curve: S. aureus; format: cell-based; settings: Staphylococcus aureus, 35° C., 16 hours, negative control = 100, read-out: % of growth at 25 PPM compared to the negative control, S. aureus ATTC29213 LMG10147
Experimental: (§2) For the determination of the anti-bacterial and anti-fungal activity the Bioscreen C Analyser Labsystems, Finland, was used. This is an automated reader-incubator. It measures growth continuously by vertical photometry (optical density), processes the data and provides a print out of the results. The area under the growth curve is automatically determined via the Biolink software.
(§3) The inoculum size of the bacteria is standardized to approximately 5×10^5 CFU/ml.
(§4) For bacteria, the 100-honey-well plates containing test chemical, Mueller-Hinton broth and inoculum (=sample) are incubated at 35° C. for 16 hours. Also wells without inoculum are incubated (=blanco). Yeasts are incubated 35° C. for 24 hours in RPMI 1640+MOPS buffer at 165 mM. Moulds also in RPMI 1640+MOPS buffer at 165 mM are incubated 25° C. for 5 days. All micro-organisms are screened against a known concentration of the reference antibiotics or antimycotics such as vancomycin, penicillin G, gentamicin or amphotericin B. The growth curve and the area under the growth curve can be determined using the Biolink software; this is illustrated in FIG. 1.
(§5) The area of the blanco is subtracted from the area of the sample, this number (delta) gives us an indication of the biological activity of the molecules tested and can be expressed as a % of growth at a specific dose compared to a negative control that has a value of 100, illustrated in FIG. 2. Screening of each dose of a specific compound is repeated 5 times. The dose used for all new molecules in all tests is 25 PPM or 25 μg/ml.
(§6) In Table 4 the results of the anti-bacterial activity is given for the new molecules. The micro-organisms used are Staphylococcus aureus, MRSA, VRE, Enterococcus faecalis, Salmonella typhimurium and Pseudomonas aeruginosa.

[15] = system: VRE ATCC700221; assay: Anti-bacterial activity, Bioscreen C growth curve: VRE; format: cell-based, vancomycin-resistant Enterococcus (VRE); settings: Enterococcus, 35° C., 16 hours, negative control = 100, read-out: % of growth at 25 PPM compared to the negative control, VRE ATCC700221
Experimental: as §2, §3, §4, §5, §6

[16] = system: HIV-1 (IIIB); assay: microbe, parasite or virus in culture; format: cell-based; settings: Human immunodeficiency virus 1, IIIB, CCRF-CEM; concentration required to inhibit HIV-induced cytopathicity in human CEM cell cultures by 50%
[17] = system: P. aeruginosa ATCC27853 LMG16217; assay: Anti-bacterial activity, Bioscreen C growth curve: P. aeruginosa; format: cell-based, Pseudomonas aeruginosa; settings: Pseudomonas aeruginosa; 25 PPM; 35° C., 16 hours; negative control = 100; read-out: % of growth at 25 PPM compared to the negative control, P. aeruginosa ATCC27853 LMG16217
Experimental: as §2, §3, §4, §5, §6

[18] = system: Microsporum gypseum IHEM 3999 - ATCC 14683; assay: Anti-fungal activity, Bioscreen C growth curve: Microsporum gypseum (mold); format: cell-based; settings: Nannizzia gypsea, ATCC14683, 120 h; 25 PPM; 25° C., 5 days; negative control = 100; read-out: % of growth at a dose of 25 PPM compared to the negative control, Microsporum gypseum IHEM 3999 - ATCC 14683
Experimental: as §2
The inoculum size of the mould is standardized to 0.4-5.0×10^4 CFU/ml.
as §4, §5
(§7) In Table 5 the anti-fungal activity is given for the new molecules. The micro-organisms used were Candida albicans (a typical yeast) and Microsporum gypseum (a typical mold).
as §2, with “Also for” for “For”, “the” for “the anti-bacterial and”, “Labsystems Oy, Finland” for “Labsystems, Finland,”, “used.” for “used. This is an automated reader-incubator.”
(§8) The inoculum size of the yeast is standardized to 0.5-2.5×10^3 CFU/ml. The inoculum size of the mould is standardized to 0.4-5.0×10^4 CFU/ml. Yeasts are incubated 35° C. for 24 hours in RPMI 1640+MOPS buffer at 165 mM. Moulds also in RPMI 1640+MOPS buffer at 165 mM are incubated 25° C. for 5 days.
(§9) As a control, all micro-organisms are screened against some reference antibiotics with known MIC. Screening of each dose of a specific compound is repeated 5 times.

[19] = system: S. typhimurium ATTC700408; assay: Anti-bacterial activity, Bioscreen C growth curve: S. typhimurium; format: cell-based; settings: Salmonella enterica, LMG16217 / TYPHIMURIUM, 35° C., 16 hours, negative control = 100, read-out: % of growth at 25 PPM compared to the negative control, S. typhimurium ATTC700408 LMG16217
Experimental: as §2, §3, §4, §5, §6

[20] = system: E. faecalis ATTC29212 LMG 8222; assay: Anti-bacterial activity, Bioscreen C growth curve: E. faecalis; format: cell-based; settings: Enterococcus faecalis, LMG8222, 35° C., 16 hours, negative control = 100, read-out: % of growth at 25 PPM compared to the negative control, E. faecalis ATTC29212 LMG 8222
Experimental: as §2, §3, §4, §5, §6

[21] = system: HIV-2 (ROD); assay: Anti-viral activity: HIV-2-induced cytopathicity in human CEM cell cultures; format: cell-based; settings: Human immunodeficiency virus 2, CCRF-CEM; concentration required to inhibit HIV-induced cytopathicity in human CEM cell cultures by 50%
[22] = system: Candida albicans IHEM 10284 - ATCC 24433; assay: Anti-fungal activity, Bioscreen C growth curve: Candida albicans (yeast); format: cell-based; settings: Candida albicans, ATCC24433; 25 PPM; 35° C., 24 hours; negative control = 100; read-out: % of growth at a dose of 25 PPM compared to the negative control, Candida albicans IHEM 10284 - ATCC 24433
Experimental: as §2
The inoculum size of the yeast is standardized to 0.5-2.5×10^3 CFU/ml.
as §4, §5, §7
as §2, with “Also for” for “For”, “the” for “the anti-bacterial and”, “Labsystems Oy, Finland” for “Labsystems, Finland,”, “used.” for “used. This is an automated reader-incubator.”
as §8, §9

[23] = system: MRSA ATCC33591; assay: Anti-bacterial activity, Bioscreen C growth curve: MRSA; format: cell-based, methicillin-resistant Staphylococcus aureus (MRSA); settings: Staphylococcus aureus, ATCC 33591 / LMG10147 / MRSA; 25 PPM; 35° C., 16 hours; negative control = 100; read-out: % of growth at 25 PPM compared to the negative control, MRSA ATCC33591 LMG10147
Experimental: as §2, §3, §4, §5, §6

[24] = system: human cervix carcinoma cells (HeLa); assay: Cytostatic activity: inhibition of proliferation of HeLa cells; format: cell-based; settings: 50% inhibitory concentration, cell proliferation
Experimental: as §1

[25] = Table 6, read-out: Anti-CMV activity IC50 AD-169 strain
[26] = Table 2, read-out: IC50 CMV AD-169 Strain

SMILES	CC50 at 3 days [1] [µg/mL]	EC50 [2] [µg/mL]	EC50 [3] [µg/mL]	IC50 [4] [µg/mL]	IC50 [5] [µg/mL]	IC50 [6] [µg/mL]	EC50 [7] [µg/mL]	IC50 [8] [µg/mL]	EC50 [9] [µg/mL]	IC50 [10] [µg/mL]	IC50 [11, 25] [µg/mL]	Cytotoxicity Cell morphology (MCC) [12] [μg/ml]	EC50 [13] [µg/mL]	activity at 25 ppm [14] [%]	activity at 25 ppm [15] [%]	EC50 [16] [µg/mL]	activity at 25 ppm [17] [%]	activity at 25 ppm [18] [%]	activity at 25 ppm [19] [%]	activity at 25 ppm [20] [%]	also measured
CO[C@@H]1[C@@H](OC)[C@H](Sc2ccccc2)O[C@@H]2CO[C@@H](c3ccccc3)O[C@@H]12 [KPE00001045]	50 (≈ 129 µM)	> 3.2	> 2	> 200	> 200	> 200	> 3.2	> 5	> 3.2	> 200	> 5	20	> 2								
c1ccc(CO[C@@H]2[C@@H](OCc3ccccc3)[C@H](Sc3ccccc3)O[C@@H]3CO[C@@H](c4ccccc4)O[C@@H]23)cc1 [KPE00001044]	> 50	> 3.2	> 2	> 200	> 200	> 200	> 3.2	> 2	> 3.2	130 ± 61 (≈ 240 µM)	> 2	5	> 2								
CO[C@@H]1[C@@H](OC)[C@H](Sc2ccccc2)O[C@@H]2COCC=CCO[C@@H]12 [KPE00001014]		> 400	> 50	> 200	> 200	> 200	240 (≈ 681 µM)		> 400	> 200			> 50	105	88.4	> 100	96.7	69	87.2	95	EC50 [21]: > 100 µg/mL; activity at 25 ppm [22]: 96%; activity at 25 ppm [23]: 113%; IC50 [11, 26]: > 50 µg/mL; IC50 [24]: > 200 µg/mL
CO[C@@H]1[C@@H](OC)[C@H](Sc2ccccc2)O[C@@H]2COC(=O)CC/C=C/CCC(=O)O[C@@H]12 [KPE00001002]		> 16	> 50	> 200	> 200	> 200	> 16		> 16	> 200			> 20	93.2	94	> 100	92.2	64	93.7	94.9	EC50 [21]: > 20 µg/mL; activity at 25 ppm [22]: 105%; activity at 25 ppm [23]: 100%; IC50 [11, 26]: > 20 µg/mL; IC50 [24]: > 200 µg/mL
O[C@@H]1[C@@H](O)[C@H](Sc2ccccc2)O[C@@H]2CO[C@@H](c3ccccc3)O[C@@H]12 [KPE00001048]	> 50	> 80	> 50	75 ± 31 (≈ 208 µM)	78 ± 12 (≈ 216 µM)	103 ± 10 (≈ 286 µM)	> 80	35 (≈ 97.1 µM)	> 80	171 ± 41 (≈ 474 µM)	33 (≈ 91.6 µM)	>50	> 50								
CO[C@@H]1[C@@H](OC)[C@H](c2ccccc2)O[C@@H]2COC(=O)CC/C=C/CCC(=O)O[C@@H]12 [KPE00001018]		> 16	> 50	132 ± 13 (≈ 326 µM)	> 200	> 200	> 16		> 16	> 200			> 50	100	94.5	> 20	59.8	79	96.6	94.9	EC50 [21]: > 100 µg/mL; activity at 25 ppm [22]: 93.5%; activity at 25 ppm [23]: 100%; IC50 [11, 26]: > 20 µg/mL; IC50 [24]: > 200 µg/mL
